We go through 57 molecules from BindingDB's records for doi:10.1007/s10822-022-00478-x (Roche Innovation Center Basel, F. Hoffmann-La Roche Ltd., 2022).

The target of the experiment is cAMP and cAMP-inhibited cGMP 3',5'-cyclic phosphodiesterase 10A (Homo sapiens, UniProt Q9Y233). The experiment in a line: PDE10A assay. As to the method: Compounds were diluted in 20 mM HEPES/NaOH (pH 7.5), 10 mM MgCl2 and 0.05 mg/ml bovine serum albumin. A fixed amount of 2 ng/well human PDE10A enzyme was added and incubated at room temperature for 15 min under agitation. The reaction was started by the addition of the substrate cocktail [3H]cGMP (Perkin Elmer NET337001MC, S.A. 13.5 Ci/mmol) / cGMP at a final concentration of 50 nM and incubated for an additional 15 min. The reaction was stopped by the addition of 0.5 mg/well of Y-Si SPA beads. The plates were shaken for 1 h, followed by a brief centrifugation (170 g for 1 min). The radioactivity bound to the beads was estimated using a TopCount (Perkin-Elmer). For the determination of IC50 values, a four parameters logistics equation was used. pIC50 is defined as − log10(IC50).

Turning to `CCN(C)C(=O)c1ncccc1NC(=O)c1nc(C2CC2)cnc1Nc1cncnc1` [US8703768, 199], the IC50 (usually the concentration that inhibits the measured activity by half) was found to be 5.93 nM. As to `CCOC(=O)c1cnn(C)c1C(=O)Nc1ccn2nc(-c3cccc(F)c3)nc2c1` [Roche-Dataset for PDE10A, Compound 175], the IC50 was determined as 46 nM. Under `O=C(NC1CCCC1)c1nc(C2CC2)cnc1Nc1cncnc1` [Roche-Dataset for PDE10A, Compound 1041] stands 965 nM. Under `O=C(NCCN1CCCC1=O)c1nc(C2CC2)cnc1Nc1cncnc1` [Roche-Dataset for PDE10A, Compound 779] stands 2070 nM; under `Cn1ncc(C(=O)N2CCOCC2)c1C(=O)Nc1ccc2nc(N3CCCC3)nn2c1` [Roche-Dataset for PDE10A, Compound 415], 2.45 nM.

Molecule `CC(=O)Nc1nc2cc(NC(=O)c3nc(C)ccc3C)ccc2s1` [Roche-Dataset for PDE10A, Compound 926] had an IC50 of 5770 nM. Molecule `COc1ncc(C2CC2)nc1C(=O)Nc1ccn2nc(-c3ccccc3)nc2c1` [Roche-Dataset for PDE10A, Compound 514] showed an IC50 of 17 nM.

The molecule `CNC(=O)c1cc(F)c(F)cc1NC(=O)c1nc(C2CC2)cnc1Nc1cncnc1` [US8703768, 288] had an IC50 of 0.74 nM. Molecule `Cc1nc(C(=O)N2CCC2)c(C(=O)Nc2ccn3nc(-c4ccccc4)nc3c2)n1C` [Roche-Dataset for PDE10A, Compound 75] gave an IC50 of 20 nM. For the molecule `Cn1ncc(C(=O)N2CCC2)c1C(=O)N[C@@H]1CCn2c(nc(-c3ccccc3)c2Cl)C1` [Roche-Dataset for PDE10A, Compound 225], inhibition was half-maximal at 6.96 nM (IC50). In the case of `Cc1nc2ccc(CCc3nc(-c4ccccc4)cn3C)nn2c1CO` [US10399985, Example 15], 21 nM corresponded to half-maximal inhibition (IC50).

Turning to `CN1CCC(n2nc(-c3ccccn3)cc2NC(=O)c2nc(C3CC3)ccc2Nc2cncnc2)CC1` [US8470820, 43], half-maximal inhibition (IC50) required 4.15 nM. In the case of `Cc1c(Cl)cc(Cl)c2nc(CCc3nc(N4CCCC4)no3)nn12` [Roche-Dataset for PDE10A, Compound 521], half-maximal inhibition (IC50) required 17 nM.

For `CCn1nc(NC(=O)c2c(C(=O)N3CCC3)cnn2C)cc1-c1cccc(Cl)c1` [Roche-Dataset for PDE10A, Compound 744], the IC50 came to 1630 nM. For `COc1ccc2c(=O)n(C)c3cnc(-c4ccccc4Cl)n3c2c1` [Roche-Dataset for PDE10A, Compound 1048], the IC50 was found to be 432 nM. `Cc1ccc(Nc2cncc(O)n2)c(C(=O)Nc2ccn(C)n2)n1` [Roche-Dataset for PDE10A, Compound 940]: the IC50 was determined as 8140 nM.

The molecule `CC(C)Cn1ccc(NC(=O)c2nc(C3CC3)ccc2Nc2cncnc2)n1` [Roche-Dataset for PDE10A, Compound 624] yielded an IC50 of 5.89 nM. The molecule `CN(C(=O)c1cnn(C)c1C(=O)N[C@@H]1CCn2cc(-c3ccccc3)nc2C1)C1COC1` [Roche-Dataset for PDE10A, Compound 248] came in with an IC50 of 44 nM. With `CCOC(=O)c1cc(NC(=O)c2c(C(=O)N3CCC3)cnn2C)nn1C` [Roche-Dataset for PDE10A, Compound 959], the IC50 is 1340 nM.

For the molecule `Cn1ncc(C(=O)N2CCC2)c1C(=O)Nc1cc2nc(-c3ccccc3)nn2cn1` [Roche-Dataset for PDE10A, Compound 236], 2.61 nM corresponded to half-maximal inhibition (IC50). Molecule `CN(C)c1nc2cc(NC(=O)c3c(C(=O)N4CCC4)cnn3C)ccn2n1` [Roche-Dataset for PDE10A, Compound 520] registered an IC50 of 2.77 nM. In turn, `Cc1cc(NC(=O)c2c(C(=O)N3CCC3)cnn2C)nn1CC(F)F` [Roche-Dataset for PDE10A, Compound 1050] registered an IC50 of 136 nM. With `CNC(=O)c1cn(C)c(CCc2nc3c(C)ncc(C)n3n2)n1` [Roche-Dataset for PDE10A, Compound 675], the IC50 stood at 228 nM. In the case of `CN1CCN(c2nc3cc(NC(=O)c4c(C(=O)N5CCC5)cnn4C)ccc3s2)CC1` [Roche-Dataset for PDE10A, Compound 546], the IC50 came out at 392 nM. Under `Cn1cc(-c2ccccc2)nc1CCc1cncc(-c2ccn[nH]2)n1` [Roche-Dataset for PDE10A, Compound 289] stands 307 nM. Under `O=C(NCc1cn2ccsc2n1)c1nc(C2CC2)cnc1Nc1cncnc1` [Roche-Dataset for PDE10A, Compound 838] stands 38 nM; under `O=C(Nc1ccn2nc(-c3ccccc3)nc2c1)c1cc(Cl)nc(N2CCCC2)c1` [Roche-Dataset for PDE10A, Compound 132], 48 nM. Turning to `Cn1ccc(NC(=O)c2nc(C3CC3)ccc2Nc2cncnc2)n1` [Roche-Dataset for PDE10A, Compound 883], the IC50 was found to be 118 nM. Under `CCOC(=O)c1cnn(C)c1C(=O)Nc1cn(-c2ccccn2)cn1` [Roche-Dataset for PDE10A, Compound 960] stands 2670 nM; under `Cc1ncc(C)n2nc(CCc3nc(N4CCC[C@@H]4C)nn3C)nc12` [Roche-Dataset for PDE10A, Compound 269], 4.54 nM; under `COCCNC(=O)c1cc2[nH]c(-c3ccccc3)nc2cc1NC(=O)c1ccnnc1` [Roche-Dataset for PDE10A, Compound 306], 35 nM.

On to `Cn1ncc(C(=O)N2CCC2)c1C(=O)Nc1ccn(Cc2cn(-c3ccc(Cl)c(Cl)c3)cn2)n1` [Roche-Dataset for PDE10A, Compound 669], for which the IC50 came out at 80 nM.

Regarding `Cc1c(Cl)ccc2nc(CCc3nc4ccc(Cl)c(C)n4n3)nn12` [Roche-Dataset for PDE10A, Compound 512], the midpoint of inhibition, the IC50, lay at 472 nM. The molecule `CCc1nc(C)c(C(=O)Nc2cc3nc(-c4ccccc4)[nH]c3cc2C(=O)NCC2(C)COC2)o1` [Roche-Dataset for PDE10A, Compound 178] had an IC50 of 3.53 nM. Under `Cc1cc(C)n2nc(CCc3cncc(N4CCCC4)n3)nc2n1` [5,7-dimethyl-2-(2-(6-(pyrrolidin-1-yl)pyrazin-2-yl)ethyl)-[1,2,4]triazolo-[1,5-a]pyrimidine] stands 307 nM; under `O=C(Nc1cc(F)c(F)cc1C(=O)N1CCC1)c1nc(C2CC2)cnc1Nc1cncnc1` [US8703768, 291], 28 nM. Take `Cc1ncc(C)n2nc(CCc3nc(C(=O)N(C)C)cn3C)nc12` [Roche-Dataset for PDE10A, Compound 609]: half-maximal inhibition (IC50) was put at 1590 nM. `Cc1ncc(C)n2nc(/C=C/c3nc(N4CCN(C(=O)OC(C)(C)C)CC4)nn3C)nc12` [Roche-Dataset for PDE10A, Compound 1119]: inhibition was half-maximal at 402 nM (IC50). As for `Cc1ncc(C)n2nc(CCc3nc(C4CCCC4)nn3C)nc12` [Roche-Dataset for PDE10A, Compound 956], the half-inhibitory concentration (IC50) stood at 146 nM. Under `CNC(=O)c1c(NC(=O)c2nc(C3CC3)ccc2Nc2cncnc2)cnn1CCOC` [US8703768, 11] stands 0.83 nM; under `CN(C)CCn1ccc(NC(=O)c2nc(C3CC3)cnc2Nc2cncnc2)n1` [Roche-Dataset for PDE10A, Compound 828], 29 nM; under `Cc1nc(C(F)(F)F)n2nc(CCc3nc(N4CCCC4)nn3C)nc2c1C` [Roche-Dataset for PDE10A, Compound 432], 7.54 nM.

Take `COCCN(C)C(=O)c1cnn(C)c1C(=O)Nc1ccn2cc(-c3cccc(OCCF)c3)nc2n1` [Roche-Dataset for PDE10A, Compound 45]: the midpoint of inhibition, the IC50, lay at 13 nM. `Cc1ncoc1C(=O)Nc1cc(-c2ccccn2)nn1C` [Roche-Dataset for PDE10A, Compound 979]: the IC50 is 2670 nM. In turn, `CCOC(=O)c1cnn(C)c1C(=O)Nc1ccn2nc(-c3ccccc3OC)nc2c1` [Roche-Dataset for PDE10A, Compound 220] registered an IC50 of 12 nM. Under `Cn1ccc(NC(=O)c2c(C(=O)N3CCC3)cnn2C)n1` [Roche-Dataset for PDE10A, Compound 1137] stands 1430 nM.

As for `CCCCc1cc(NC(=O)c2c(C(=O)N3CCC3)cnn2C)n(C2CCCC2)n1` [Roche-Dataset for PDE10A, Compound 814], half-maximal inhibition (IC50) was put at 619 nM. For the molecule `CC(C)Oc1cccc(NC(=O)c2nc(C3CC3)cnc2Nc2cncnc2)c1` [Roche-Dataset for PDE10A, Compound 721], the IC50 is 9.47 nM. `O=C(Nc1snnc1-c1ccccc1)c1nc(C2CC2)ccc1Nc1cncnc1` [Roche-Dataset for PDE10A, Compound 818] displayed an IC50 of 7.58 nM. Regarding `CNC(=O)c1cc2[nH]c(-c3ccccc3)nc2cc1NC(=O)c1cc(C)on1` [Roche-Dataset for PDE10A, Compound 557], the IC50 worked out at 189 nM. Under `O=C(Nc1ccnn1-c1ccccn1)c1nc(C2CC2)ccc1Nc1cncnc1` [Roche-Dataset for PDE10A, Compound 435] stands 3.43 nM; under `O=C1c2ccccc2C(=O)N1CCc1csc(-c2ccccc2)n1` [Roche-Dataset for PDE10A, Compound 177], 2520 nM; under `Cc1c(Cl)cc(C(F)(F)F)c2nc(/C=C/c3nc(N4CCCC4)nn3C)nn12` [Roche-Dataset for PDE10A, Compound 154], 2.74 nM.

Regarding `NS(=O)(=O)c1ccc(CNC(=O)c2nc(C3CC3)cnc2Nc2cncnc2)cc1` [Roche-Dataset for PDE10A, Compound 817], the half-inhibitory concentration (IC50) is 389 nM. `O=C(Nc1cc(-c2ccccn2)nn1CC(F)(F)F)c1nc(C2CC2)ccc1Nc1cncnc1` [US8470820, 22] returned an IC50 of 2.54 nM. On to `O=C(Nc1cccc(C(=O)N2CCOCC2)n1)c1nc(C2CC2)cnc1Nc1cncnc1` [Roche-Dataset for PDE10A, Compound 920], for which the IC50 turned out to be 7.49 nM. `Cc1ccc(C)c(C(=O)Nc2cc(-c3ccccn3)nn2C)n1` [Roche-Dataset for PDE10A, Compound 726] displayed an IC50 of 3340 nM.
